Data taken from US6403587B1, “Heteroaryl-hexanoic acid amide derivatives, their preparation and their use as selective inhibitors of MIP-1-α binding to its CCR 1 receptor” (Pfizer Inc., priority 1997, dated 2002).

melting point [°C] | SMILES
162 to 163 | CC(C)(O)CC[C@H](C[C@H](O)[C@H](Cc1cc(F)cc(F)c1)NC(=O)c1cnc2ccccc2n1)C(N)=O [Example 315, Quinoxaline-2-carboxylic acid [4(R)-carbamoyl-1(S)-(3,5-difluoro-benzyl)-2(S),7-dihydroxy-7-methyl-octyl]-amide]
98 to 100 | CC(C)(O)CC[C@H](C[C@H](O)[C@H](Cc1cc(F)cc(F)c1)NC(=O)c1cnc2ccccc2n1)C(=O)NO [Example 320, Quinoxaline-2-carboxylic acid [1(S)-(3,5-difluoro-benzyl)-2(S),7-dihydroxy-4(R)-hydroxycarbamoyl-7-methyl-octyl]-amide]
158 to 159 | CC(C)(O)CC[C@H](C[C@H](O)[C@H](Cc1cccs1)NC(=O)c1cnc2ccccc2n1)C(N)=O [Example 327, Quinoxaline-2-carboxylic acid (4(R)-carbamoyl-2(S),7-dihydroxy-7-methyl-1(S)-thiophen-2-ylmethyl-octyl)-amide]
147 to 148 | CC(C)(O)CC[C@H](C[C@H](O)[C@H](Cc1ccccc1F)NC(=O)c1cnc2ccccc2n1)C(N)=O [Example 328, Quinoxaline-2-carboxylic acid [4(R)-carbamoyl-1(S)-(2-fluoro-benzyl)-2(S),7-dihydroxy-7-methyl-octyl]-amide]
150 to 153 | CC(C)(O)CC[C@H](C[C@H](O)[C@H](Cc1ccc(F)c(F)c1)NC(=O)c1cnc2ccccc2n1)C(=O)NO [Example 329, Quinoxaline-2-carboxylic acid [1(S)-(3,4-difluoro-benzyl)-2(S),7-dihydroxy-4(R)-hydroxycarbamoyl-7-methyl-octyl]-amide]
110 to 120 | CC(C)(O)CC[C@H](C[C@H](O)[C@H](Cc1ccc(F)c(F)c1)NC(=O)c1cnc2ccccc2n1)C(N)=O [Example 330, Quinoxaline-2-carboxylic acid [4(R)-carbamoyl-1(S)-(3,4-difluoro-benzyl)-2(S),7-dihydroxy-7-methyl-octyl]-amide]

Second part, the compound before the results:

SMILES | melting point [°C]
CC(C)(O)CC[C@H](C[C@H](O)[C@H](Cc1ccccc1)NC(=O)c1cnccc1C(F)(F)F)C(N)=O [Example 323, N-(1(S)-Benzyl-4(R)-carbamoyl-2(S),7-dihydroxy-7-methyl-octyl)-4-trifluoromethyl-nicotinamide] | 131 to 135
CC(C)(O)CC[C@H](C[C@H](O)[C@H](Cc1ccccc1F)NC(=O)c1cnc2ccccc2n1)C(=O)NO [Example 326, Quinoxaline-2-carboxylic acid [1(S)-(2-fluoro-benzyl)-2(S),7-dihydroxy4(R)-hydroxycarbamoyl-7-methyl-octyl]-amide] | 130 to 131
CC(C)(O)CC[C@H](C[C@H](O)[C@H](Cc1cccc2ccccc12)NC(=O)c1cnc2ccccc2n1)C(N)=O [Example 331, Quinoxaline-2-carboxylic acid (4(R)-carbamoyl-2(S),7-dihydroxy-7-methyl-1(S)-naphthalen-1-ylmethyl-octyl)-amide] | 155 to 158
CC(C)(O)CC[C@H](C[C@H](O)[C@H](Cc1cccc(F)c1)NC(=O)c1cnc2c(F)c(F)c(F)cc2c1)C(N)=O [Example 332, 6,7,8-Trifluoro-quinoline-3-carboxylic acid [4(R)-carbamoyl-1(S)-(3-fluoro-benzyl)-2(S),7-dihydroxy-7-methyl-octyl]-amide] | 183 to 185
CC(C)(O)CC[C@H](C[C@H](O)[C@H](Cc1ccc2ccccc2c1)NC(=O)c1cnc2ccccc2n1)C(N)=O [Example 333, Quinoxaline-2-carboxylic acid (4(R)-carbamoyl-2(S),7-dihydroxy-7-methyl-1(S)-naphthalen-2-ylmethyl-octyl)-amide] | 104 to 106
CC(C)(O)CC[C@H](C[C@H](O)[C@H](Cc1csc2ccccc12)NC(=O)c1cnc2ccccc2n1)C(N)=O [Example 335, Quinoxaline-2-carboxylic acid (1(S)-benzo[b]thiophen-3-ylmethyl-4(R)-carbamoyl-2(S),7-dihydroxy-7-methyl-octyl)-amide] | 163 to 164
NC(=O)C(Cc1ccc(O)cc1)CC(O)C(Cc1ccccc1)NC(=O)c1cnc2ccccc2n1 (stereo not shown) [Example 336, Quinoxaline-2-carboxylic acid [1-benzyl-4-carbamoyl-2-hydroxy-5-(4-hydroxy-phenyl)-pentyl]-amide] | 190.5 to 191.5
